Measurements reported in ChEMBL document CHEMBL1201862, “PubChem BioAssay data set” (2004).
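Each compound was tested at five concentrations against cells in 96-well plates for 48 hours. At the GI50, growth is halved.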 Active and inactive are the calls of the source. Rule as the data show it: active = GI50 up to about 1.1 µM and inactive = higher.

Tests used:
Assay in all cases: NCI-60 cell line screen, 48 h
SW-620 = system: SW-620
SK-MEL-2 = system: SK-MEL-2
KM12 = system: KM12
NCI-H226 = system: NCI-H226
K562 = system: K562
OVCAR-5 = system: OVCAR-5
SF-295 = system: SF-295
HOP-92 = system: HOP-92
RPMI-8226 = system: RPMI-8226
HOP-62 = system: HOP-62
SK-MEL-5 = system: SK-MEL-5
HT-29 = system: HT-29
TK-10 = system: TK-10
UACC-62 = system: UACC-62
UACC-257 = system: UACC-257
HCC 2998 = system: HCC 2998
SK-OV-3 = system: SK-OV-3
LOX IMVI = system: LOX IMVI
EKVX = system: EKVX

Measured: GI50

COc1ccc(C(=O)OCC2OC(n3cnc4c(=S)nc[nH]c43)C(OC(=O)c3ccc(OC)cc3)C2OC(=O)c2ccc(OC)cc2)cc1 (stereo not drawn)
inactive: SW-620 46.9 µM | SK-MEL-2 12.8 µM | KM12 45.6 µM | NCI-H226 30.1 µM | K562 3.27 µM | OVCAR-5 23.1 µM | SF-295 33.1 µM | HOP-92 6.05 µM | RPMI-8226 4.36 µM | HOP-62 3.18 µM | SK-MEL-5 69.2 µM | HT-29 24.9 µM | TK-10 7.43 µM | UACC-62 13.3 µM | UACC-257 16.8 µM | HCC 2998 9.35 µM

O=C(O)CSc1ccc2nc3ccccc3c(O)c2c1
inactive: SW-620 > 100 µM | NCI-H226 > 100 µM | K562 > 100 µM | SK-OV-3 > 100 µM | OVCAR-5 > 100 µM | SF-295 > 100 µM | LOX IMVI > 100 µM | HOP-92 > 100 µM | RPMI-8226 > 100 µM | HOP-62 > 100 µM | SK-MEL-5 > 100 µM | HT-29 > 100 µM | TK-10 > 100 µM | UACC-62 > 100 µM | UACC-257 > 100 µM | HCC 2998 > 100 µM

CCOC(=O)C(=O)Nc1cc(Cl)ccc1Cl
inactive: SW-620 > 100 µM | SK-MEL-2 > 100 µM | EKVX > 100 µM | KM12 > 100 µM | NCI-H226 > 100 µM | K562 > 100 µM | SK-OV-3 > 100 µM | OVCAR-5 > 100 µM | SF-295 > 100 µM | HOP-92 > 100 µM | RPMI-8226 > 100 µM | HOP-62 > 100 µM | SK-MEL-5 > 100 µM | HT-29 > 100 µM | TK-10 > 100 µM | UACC-62 > 100 µM | UACC-257 > 100 µM | HCC 2998 > 100 µM

Cc1cc(C)nc(NS(=O)(=O)c2ccc(Nc3c4ccccc4nc4c(C(=O)Nc5ccc(S(=O)(=O)Nc6cc(C)on6)cc5)cccc34)cc2)n1
inactive: SW-620 23.4 µM | EKVX 26.2 µM | KM12 20 µM | NCI-H226 21 µM | K562 23.2 µM | SK-OV-3 27.1 µM | OVCAR-5 24.3 µM | SF-295 22.8 µM | LOX IMVI 19.8 µM | HOP-92 18.7 µM | RPMI-8226 22 µM | HOP-62 21.2 µM | SK-MEL-5 18.7 µM | HT-29 19.9 µM | TK-10 26.8 µM | UACC-62 17.8 µM | UACC-257 25.5 µM | HCC 2998 16.8 µM

c1ccc2c(CSCc3cccc4ccccc34)cccc2c1
inactive: SW-620 > 100 µM | SK-MEL-2 > 100 µM | EKVX 46.8 µM | KM12 > 100 µM | NCI-H226 > 100 µM | K562 76.7 µM | OVCAR-5 > 100 µM | SF-295 > 100 µM | LOX IMVI > 100 µM | HOP-92 > 100 µM | HOP-62 > 100 µM | SK-MEL-5 88.7 µM | HT-29 40.2 µM | TK-10 > 100 µM | UACC-62 > 100 µM | UACC-257 52.7 µM | HCC 2998 50.8 µM

COc1ccc(-c2ccc(CC(=O)O)cc2)cc1OC
inactive: SW-620 > 100 µM | SK-MEL-2 > 100 µM | EKVX > 100 µM | KM12 > 100 µM | NCI-H226 > 100 µM | K562 > 100 µM | SK-OV-3 > 100 µM | OVCAR-5 > 100 µM | SF-295 > 100 µM | HOP-92 > 100 µM | RPMI-8226 > 100 µM | HOP-62 95.5 µM | SK-MEL-5 > 100 µM | HT-29 > 100 µM | TK-10 > 100 µM | UACC-62 > 100 µM | UACC-257 > 100 µM

COc1ccc(/C(C=O)=C(\Cl)c2ccc(OC)c(OC)c2)cc1
inactive: SW-620 > 100 µM | SK-MEL-2 > 100 µM | EKVX > 100 µM | NCI-H226 > 100 µM | K562 62.8 µM | SK-OV-3 67.1 µM | OVCAR-5 > 100 µM | SF-295 > 100 µM | LOX IMVI > 100 µM | RPMI-8226 > 100 µM | HOP-62 36.8 µM | SK-MEL-5 > 100 µM | HT-29 > 100 µM | TK-10 > 100 µM | UACC-62 > 100 µM | UACC-257 > 100 µM | HCC 2998 > 100 µM

CCCCCCCC(=O)OC[C@@H](C[As](=O)(O)O)OC(=O)CCCCCCC
inactive: SW-620 12.9 µM | EKVX 26.5 µM | NCI-H226 6.58 µM | K562 13.8 µM | SK-OV-3 14.6 µM | SF-295 15.1 µM | HOP-92 17.2 µM | RPMI-8226 10.3 µM | HOP-62 18.7 µM | SK-MEL-5 13.9 µM | HT-29 14.1 µM | UACC-62 11.3 µM | UACC-257 16.4 µM | HCC 2998 15.7 µM

O=C(/C=C/c1cccs1)c1ccc(C(=O)/C=C/c2cccs2)cc1
inactive: SW-620 > 100 µM | EKVX > 100 µM | KM12 > 100 µM | NCI-H226 > 100 µM | SK-OV-3 > 100 µM | OVCAR-5 > 100 µM | SF-295 > 100 µM | HOP-92 > 100 µM | HOP-62 > 100 µM | HT-29 > 100 µM | TK-10 > 100 µM | UACC-62 > 100 µM | UACC-257 > 100 µM | HCC 2998 > 100 µM

CC(C)[C@@H](C)CC[C@@H](C)C1CC=C2[C@@H]3CCC4C[C@@H](O[Si](C)(C)C(C)(C)C)CC[C@]4(C)C3CC[C@@]21C (stereo partly drawn)
inactive: SW-620 > 100 µM | SK-MEL-2 > 100 µM | EKVX > 100 µM | KM12 > 100 µM | NCI-H226 > 100 µM | K562 > 100 µM | SK-OV-3 > 100 µM | RPMI-8226 > 100 µM | HOP-62 > 100 µM | SK-MEL-5 > 100 µM | TK-10 > 100 µM | UACC-62 > 100 µM | UACC-257 > 100 µM | HCC 2998 > 100 µM

CC(C)c1cccc2sc(NC(=O)C(=O)C(C#N)c3cccc4ccccc34)nc12 (stereo not drawn)
inactive: SW-620 > 100 µM | SK-MEL-2 45.2 µM | EKVX 10.9 µM | KM12 > 100 µM | NCI-H226 71.1 µM | SK-OV-3 48.4 µM | SF-295 69.7 µM | HOP-92 30.4 µM | HOP-62 99.8 µM | SK-MEL-5 68.1 µM | HT-29 77.4 µM | TK-10 > 100 µM | UACC-62 57.4 µM | UACC-257 92.3 µM | HCC 2998 65.8 µM

O=S(O)c1cc(Cl)c(O)c(Cl)c1
inactive: SK-MEL-2 > 100 µM | EKVX > 100 µM | KM12 > 100 µM | K562 > 100 µM | SK-OV-3 > 100 µM | OVCAR-5 > 100 µM | LOX IMVI > 100 µM | HOP-62 > 100 µM | HT-29 > 100 µM | TK-10 > 100 µM | UACC-62 > 100 µM | UACC-257 > 100 µM | HCC 2998 > 100 µM

CCC1CN2CCC3(c4ccccc4)CC(C(=O)OC)=CC1C23 (stereo not drawn)
inactive: SW-620 16.9 µM | EKVX 13.5 µM | KM12 15 µM | NCI-H226 17 µM | K562 9.46 µM | SK-OV-3 13.3 µM | OVCAR-5 5.6 µM | SF-295 18.2 µM | LOX IMVI 14.6 µM | HOP-92 11.7 µM | RPMI-8226 21.3 µM | HOP-62 19.2 µM | SK-MEL-5 16.4 µM | HT-29 16.7 µM | TK-10 25.4 µM | UACC-62 15.9 µM | UACC-257 16.4 µM | HCC 2998 16.7 µM

N#CC(Nc1cccc(C(F)(F)F)c1)c1ccccc1C(F)(F)F (stereo not drawn)
inactive: SW-620 3.08 µM | SK-MEL-2 7.21 µM | EKVX 15.4 µM | KM12 7.52 µM | NCI-H226 15.9 µM | K562 14.5 µM | SK-OV-3 17.6 µM | OVCAR-5 14.8 µM | SF-295 10.5 µM | LOX IMVI 5.51 µM | HOP-62 3.52 µM | SK-MEL-5 18 µM | HT-29 13.7 µM | TK-10 14.7 µM | UACC-62 16.2 µM | UACC-257 14.6 µM | HCC 2998 7.78 µM

OCC12C=CC(C1)c1ccccc12 (stereo not drawn)
inactive: SW-620 > 100 µM | NCI-H226 > 100 µM | K562 > 100 µM | SK-OV-3 > 100 µM | OVCAR-5 > 100 µM | SF-295 > 100 µM | LOX IMVI > 100 µM | HOP-92 > 100 µM | RPMI-8226 > 100 µM | HOP-62 > 100 µM | SK-MEL-5 > 100 µM | HT-29 > 100 µM | TK-10 > 100 µM | UACC-62 > 100 µM | UACC-257 > 100 µM | HCC 2998 > 100 µM

CC1=CCC2(C#N)CCC1C2O (stereo not drawn)
inactive: SK-MEL-2 > 100 µM | EKVX > 100 µM | KM12 > 100 µM | NCI-H226 > 100 µM | K562 > 100 µM | SK-OV-3 > 100 µM | OVCAR-5 > 100 µM | SF-295 > 100 µM | LOX IMVI > 100 µM | RPMI-8226 > 100 µM | HOP-62 > 100 µM | SK-MEL-5 > 100 µM | HT-29 > 100 µM | TK-10 > 100 µM | UACC-62 > 100 µM | UACC-257 > 100 µM | HCC 2998 > 100 µM

CCCCCCCCCCCCCCCCCCC1=C(O)C(=O)C=C(OC)C1=O
inactive: SW-620 51.4 µM | SK-MEL-2 26.5 µM | EKVX 41.7 µM | KM12 35.2 µM | NCI-H226 62.5 µM | SK-OV-3 > 100 µM | OVCAR-5 39.5 µM | SF-295 36.5 µM | HOP-92 80.4 µM | HOP-62 34.3 µM | SK-MEL-5 40 µM | HT-29 88.9 µM | TK-10 40.4 µM | UACC-62 27.8 µM | UACC-257 78.2 µM | HCC 2998 38.3 µM
